For one data set, the target named is Cytochrome P450 2C9 (Homo sapiens, UniProt P11712). The experiment in a line: Inhibition of CYP2C9 in human microsome. The class given is ADME.
The next data set addresses T1, CYP1A1 (Homo sapiens, UniProt P04798).
T1 sequence (P04798 whole entry): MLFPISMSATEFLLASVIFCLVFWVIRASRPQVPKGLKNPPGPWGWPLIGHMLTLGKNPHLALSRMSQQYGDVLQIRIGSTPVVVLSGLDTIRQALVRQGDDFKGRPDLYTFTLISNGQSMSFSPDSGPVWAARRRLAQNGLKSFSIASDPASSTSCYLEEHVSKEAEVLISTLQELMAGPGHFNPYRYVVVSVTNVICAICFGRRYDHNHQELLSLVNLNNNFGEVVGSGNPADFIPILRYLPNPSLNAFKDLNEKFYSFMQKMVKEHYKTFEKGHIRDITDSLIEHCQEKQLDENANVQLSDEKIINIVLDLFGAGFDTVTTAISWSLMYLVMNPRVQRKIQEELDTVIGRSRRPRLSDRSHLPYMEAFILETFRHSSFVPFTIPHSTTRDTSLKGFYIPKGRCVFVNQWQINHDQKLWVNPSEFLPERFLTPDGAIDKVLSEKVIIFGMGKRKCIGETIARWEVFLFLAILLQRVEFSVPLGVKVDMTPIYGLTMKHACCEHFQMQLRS
The data set can be described thus: (§1) Inhibition of CYP1A1 in human microsome at 100 uM. The format is ADME, microsomes. As to conditions: human microsomes.

In another data set the target is Cytochrome P450 2D6 (Homo sapiens, UniProt P10635). The data set can be described thus: Inhibition of CYP2D6 in human microsome. The class given is ADME.
Cytochrome P450 2D6, sequence (P10635 whole entry): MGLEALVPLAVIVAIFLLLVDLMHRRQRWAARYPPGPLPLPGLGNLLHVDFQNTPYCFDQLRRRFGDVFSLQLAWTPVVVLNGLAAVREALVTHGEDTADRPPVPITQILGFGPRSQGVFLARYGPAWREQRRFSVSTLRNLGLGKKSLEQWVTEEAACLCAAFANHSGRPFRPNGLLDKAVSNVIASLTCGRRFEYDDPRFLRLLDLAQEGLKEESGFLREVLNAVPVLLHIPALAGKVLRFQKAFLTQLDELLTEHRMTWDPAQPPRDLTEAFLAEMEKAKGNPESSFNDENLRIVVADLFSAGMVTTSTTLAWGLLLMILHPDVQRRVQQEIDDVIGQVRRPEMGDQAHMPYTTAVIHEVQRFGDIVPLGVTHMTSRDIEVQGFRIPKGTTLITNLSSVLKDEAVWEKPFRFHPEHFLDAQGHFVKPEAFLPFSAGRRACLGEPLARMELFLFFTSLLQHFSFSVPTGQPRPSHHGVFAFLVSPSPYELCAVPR
The target in a further data set is Cytochrome P450 2C19 (Homo sapiens, UniProt P33261). The data set can be described thus: Inhibition of CYP2C19 in human microsome. The format is ADME.
Cytochrome P450 2C19, sequence (P33261 whole entry): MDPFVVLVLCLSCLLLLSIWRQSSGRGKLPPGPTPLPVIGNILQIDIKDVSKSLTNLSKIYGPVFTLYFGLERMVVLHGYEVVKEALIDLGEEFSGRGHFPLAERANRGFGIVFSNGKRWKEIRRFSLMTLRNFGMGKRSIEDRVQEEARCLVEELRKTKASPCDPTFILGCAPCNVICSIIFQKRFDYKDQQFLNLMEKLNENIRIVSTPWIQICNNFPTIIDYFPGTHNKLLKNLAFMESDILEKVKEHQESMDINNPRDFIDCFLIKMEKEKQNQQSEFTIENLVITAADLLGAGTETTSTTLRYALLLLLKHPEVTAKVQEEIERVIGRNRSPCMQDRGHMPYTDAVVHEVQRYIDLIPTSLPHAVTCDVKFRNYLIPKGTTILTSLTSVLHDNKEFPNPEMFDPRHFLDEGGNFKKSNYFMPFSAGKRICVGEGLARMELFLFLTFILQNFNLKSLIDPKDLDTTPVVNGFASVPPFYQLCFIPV
The target in a further data set is Cytochrome P450 3A4 (Homo sapiens, UniProt P08684). The experiment in a line: Inhibition of CYP3A4 in human microsome. The format is ADME.
Cytochrome P450 3A4, sequence (P08684 whole entry): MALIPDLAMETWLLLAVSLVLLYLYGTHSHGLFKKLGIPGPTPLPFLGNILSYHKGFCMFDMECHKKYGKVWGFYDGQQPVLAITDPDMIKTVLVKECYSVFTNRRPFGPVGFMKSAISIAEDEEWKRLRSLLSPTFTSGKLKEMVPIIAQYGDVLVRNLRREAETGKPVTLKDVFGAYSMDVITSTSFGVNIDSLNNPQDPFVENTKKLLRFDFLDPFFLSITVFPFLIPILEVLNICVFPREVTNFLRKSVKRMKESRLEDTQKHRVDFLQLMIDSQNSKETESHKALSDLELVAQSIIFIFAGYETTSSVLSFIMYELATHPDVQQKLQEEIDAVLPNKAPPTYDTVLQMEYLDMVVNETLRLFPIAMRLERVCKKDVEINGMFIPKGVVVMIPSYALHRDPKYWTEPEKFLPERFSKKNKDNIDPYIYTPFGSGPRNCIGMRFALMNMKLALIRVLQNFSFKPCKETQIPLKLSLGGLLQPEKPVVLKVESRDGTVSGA
Another data set has as its target T2, CYP1A2 (Homo sapiens, UniProt P05177).
T2 sequence (P05177 whole entry): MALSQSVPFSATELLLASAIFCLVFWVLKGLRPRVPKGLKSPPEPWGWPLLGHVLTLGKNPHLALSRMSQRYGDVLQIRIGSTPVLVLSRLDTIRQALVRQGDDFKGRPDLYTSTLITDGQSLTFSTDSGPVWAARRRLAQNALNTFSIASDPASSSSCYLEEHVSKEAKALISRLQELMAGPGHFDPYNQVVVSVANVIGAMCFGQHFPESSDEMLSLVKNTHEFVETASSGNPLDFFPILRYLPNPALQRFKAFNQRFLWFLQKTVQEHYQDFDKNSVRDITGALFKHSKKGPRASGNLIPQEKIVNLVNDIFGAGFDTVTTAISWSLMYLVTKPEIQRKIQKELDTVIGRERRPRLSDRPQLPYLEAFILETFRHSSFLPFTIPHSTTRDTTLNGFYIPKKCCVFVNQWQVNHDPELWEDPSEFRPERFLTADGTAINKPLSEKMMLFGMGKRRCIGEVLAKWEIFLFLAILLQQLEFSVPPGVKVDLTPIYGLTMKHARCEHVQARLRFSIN
The data set can be described thus: (§2) Inhibition of CYP1A2 in human microsome at 100 uM. The class given is ADME, microsomes. The settings on record: human microsomes.

In data set [1] the target is Sodium-dependent serotonin transporter (Rattus norvegicus, UniProt P31652). The data set can be described thus: Inhibition of rat SERT-mediated uptake.
Sodium-dependent serotonin transporter, sequence (P31652 whole entry): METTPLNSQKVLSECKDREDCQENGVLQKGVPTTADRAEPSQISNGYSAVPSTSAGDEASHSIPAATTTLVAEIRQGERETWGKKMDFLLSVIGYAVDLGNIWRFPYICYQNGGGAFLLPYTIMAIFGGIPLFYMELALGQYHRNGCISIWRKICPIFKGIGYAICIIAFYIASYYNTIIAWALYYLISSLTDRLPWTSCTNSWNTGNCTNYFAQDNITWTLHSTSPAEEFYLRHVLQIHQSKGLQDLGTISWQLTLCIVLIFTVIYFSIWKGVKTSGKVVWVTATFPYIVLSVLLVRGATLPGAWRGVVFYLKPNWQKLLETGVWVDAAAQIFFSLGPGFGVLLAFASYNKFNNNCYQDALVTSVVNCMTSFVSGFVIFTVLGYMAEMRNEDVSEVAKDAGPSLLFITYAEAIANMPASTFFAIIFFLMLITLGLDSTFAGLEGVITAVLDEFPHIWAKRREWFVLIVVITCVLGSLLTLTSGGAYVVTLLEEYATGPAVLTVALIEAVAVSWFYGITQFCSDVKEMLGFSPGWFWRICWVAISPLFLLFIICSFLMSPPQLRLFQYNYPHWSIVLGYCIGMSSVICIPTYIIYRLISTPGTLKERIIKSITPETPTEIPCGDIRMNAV
The test system of the next data set is Rattus norvegicus. The experiment in a line: Wake promoting activity in Sprague-Dawley rat assessed as increase of wake duration at 100 mg/kg, ip after 4 hrs (reference value: 79.2 +/- 7.2 mins). The class given is functional. The settings on record: route intraperitoneal.
The target of a further data set is Cytochrome P450 3A5 (Homo sapiens, UniProt P20815). The data set can be described thus: Inhibition of CYP3A5 in human microsome. The class given is ADME.
Cytochrome P450 3A5, sequence (P20815 whole entry): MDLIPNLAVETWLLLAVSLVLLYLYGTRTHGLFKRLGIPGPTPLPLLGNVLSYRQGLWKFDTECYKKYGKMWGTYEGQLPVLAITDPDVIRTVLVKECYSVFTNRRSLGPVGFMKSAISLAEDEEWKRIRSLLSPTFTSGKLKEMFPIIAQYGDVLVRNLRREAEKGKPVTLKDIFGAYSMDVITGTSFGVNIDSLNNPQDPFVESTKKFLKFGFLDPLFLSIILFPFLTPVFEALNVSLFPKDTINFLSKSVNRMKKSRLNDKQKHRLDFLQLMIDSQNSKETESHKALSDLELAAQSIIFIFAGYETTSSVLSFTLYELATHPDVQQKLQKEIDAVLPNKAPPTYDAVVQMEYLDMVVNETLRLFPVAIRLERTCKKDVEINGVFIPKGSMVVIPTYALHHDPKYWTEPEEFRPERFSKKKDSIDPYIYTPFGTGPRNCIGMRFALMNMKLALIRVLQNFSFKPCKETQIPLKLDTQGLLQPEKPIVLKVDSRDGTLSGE
The target of a further data set is Transporter (Rattus norvegicus, UniProt Q63380). The experiment in a line: Inhibition of rat NET-mediated uptake.
Transporter, sequence (Q63380 whole entry): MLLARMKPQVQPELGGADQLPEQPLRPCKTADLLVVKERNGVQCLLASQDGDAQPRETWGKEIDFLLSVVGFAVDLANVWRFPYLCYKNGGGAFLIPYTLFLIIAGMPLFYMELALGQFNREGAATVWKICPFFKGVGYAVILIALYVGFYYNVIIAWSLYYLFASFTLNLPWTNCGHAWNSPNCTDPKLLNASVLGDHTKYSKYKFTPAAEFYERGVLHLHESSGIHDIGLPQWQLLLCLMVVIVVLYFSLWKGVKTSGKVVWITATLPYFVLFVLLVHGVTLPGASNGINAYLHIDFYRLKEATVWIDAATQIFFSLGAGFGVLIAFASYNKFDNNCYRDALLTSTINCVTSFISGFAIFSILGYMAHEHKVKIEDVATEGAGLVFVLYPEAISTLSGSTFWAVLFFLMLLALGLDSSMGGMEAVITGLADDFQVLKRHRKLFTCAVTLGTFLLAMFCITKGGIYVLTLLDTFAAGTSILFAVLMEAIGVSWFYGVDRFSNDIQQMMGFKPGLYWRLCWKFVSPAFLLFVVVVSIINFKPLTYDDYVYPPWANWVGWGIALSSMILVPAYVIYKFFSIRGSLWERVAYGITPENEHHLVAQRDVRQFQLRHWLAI
Data set [2] concerns the target T3, Sodium-dependent dopamine transporter (Rattus norvegicus, UniProt P23977). The data set can be described thus: Inhibition of rat DAT.
A further data set concerns the target T4, Cytochrome P450 1A1 (Homo sapiens, UniProt P04798).
T4 sequence (P04798 whole entry): T1 sequence (P04798 whole entry)
The description is as §1. The class given is ADME, microsomes. As to conditions: microsomes, 100 µM.

The target of data set [3] is T3, Sodium-dependent dopamine transporter. The experiment in a line: Inhibition of rat DAT-mediated uptake.
The target in a further data set is T5, Cytochrome P450 1A2 (Homo sapiens, UniProt P05177).
T5 sequence (P05177 whole entry): T2 sequence (P05177 whole entry)
The data set is described as §2. The class given is ADME, microsomes. As to conditions: microsomes, 100 µM.

Data set [4] has as its target Transporter (Rattus norvegicus) (UniProt Q63380). The experiment in a line: Inhibition of rat NET at 10 uM.
Data set [5] addresses Sodium-dependent serotonin transporter (Rattus norvegicus) (UniProt P31652). The experiment in a line: Inhibition of rat SERT at 10 uM.

pIC50: −log10 of the molar value.

T3 sequence (P23977 whole entry): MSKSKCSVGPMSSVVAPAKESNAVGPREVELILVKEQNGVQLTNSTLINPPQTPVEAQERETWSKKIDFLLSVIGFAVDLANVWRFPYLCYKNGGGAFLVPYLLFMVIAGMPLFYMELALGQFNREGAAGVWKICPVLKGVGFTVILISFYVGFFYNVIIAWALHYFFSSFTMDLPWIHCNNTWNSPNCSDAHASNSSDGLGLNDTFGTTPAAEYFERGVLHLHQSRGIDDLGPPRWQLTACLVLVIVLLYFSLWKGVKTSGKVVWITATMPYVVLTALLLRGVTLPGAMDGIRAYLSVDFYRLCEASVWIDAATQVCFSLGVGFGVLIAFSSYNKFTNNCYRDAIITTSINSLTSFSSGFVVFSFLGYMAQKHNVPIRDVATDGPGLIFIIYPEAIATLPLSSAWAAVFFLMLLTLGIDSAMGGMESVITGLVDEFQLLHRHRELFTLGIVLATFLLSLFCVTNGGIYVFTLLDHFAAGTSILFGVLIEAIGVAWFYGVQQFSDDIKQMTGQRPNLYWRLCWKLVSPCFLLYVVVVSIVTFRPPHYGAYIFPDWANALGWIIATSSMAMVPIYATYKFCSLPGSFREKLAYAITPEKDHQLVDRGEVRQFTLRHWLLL
Transporter (Rattus norvegicus), sequence (Q63380 as listed by the source): as the sequence (Q63380 whole entry) above
Sodium-dependent serotonin transporter (Rattus norvegicus), sequence (P31652 whole entry): as the sequence (P31652 whole entry) above
Cytochrome P450 2C9, sequence (P11712 whole entry): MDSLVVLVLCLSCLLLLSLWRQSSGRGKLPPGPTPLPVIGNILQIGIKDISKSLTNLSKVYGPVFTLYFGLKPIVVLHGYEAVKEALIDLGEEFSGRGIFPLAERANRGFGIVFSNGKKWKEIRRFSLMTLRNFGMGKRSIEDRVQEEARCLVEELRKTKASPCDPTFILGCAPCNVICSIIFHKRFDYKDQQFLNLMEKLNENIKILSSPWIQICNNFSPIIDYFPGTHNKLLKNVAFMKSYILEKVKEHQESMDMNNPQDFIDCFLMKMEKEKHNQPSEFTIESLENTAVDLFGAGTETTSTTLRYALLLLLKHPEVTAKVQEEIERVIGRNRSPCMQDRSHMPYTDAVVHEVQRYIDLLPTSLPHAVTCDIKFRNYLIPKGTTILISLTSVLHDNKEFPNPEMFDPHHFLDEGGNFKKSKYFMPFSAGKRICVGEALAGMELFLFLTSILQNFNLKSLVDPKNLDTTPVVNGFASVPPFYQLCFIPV

In the case of `NC(=O)C[S+]([O-])Cc1ccccc1-c1ccc(Cl)cc1` (single isomer, unassigned; (-)) [listing 1 of 2 here], the pIC50 against Cytochrome P450 2C9 is 3.63; against Cytochrome P450 2D6, 3.75; at Cytochrome P450 2C19, 3.76; at Cytochrome P450 3A4, 3.86; in data set [1] it was below 3.52; on Cytochrome P450 3A5, 3.86. Besides, the pIC50 is 4.96 against Transporter and 6.40 in [2]. The inhibition at 100 µM on CYP1A1 and against CYP1A2 was 14% each time. Also, in the data set on Rattus norvegicus, the Time worked out at 238.5 min.

Take `NC(=O)C[S+]([O-])Cc1ccccc1-c1ccc(Cl)cc1` (single isomer, unassigned; (+)) [listing 1 of 2 here]: the pIC50 at Cytochrome P450 2C9 was 3.89; against Cytochrome P450 2D6, 3.82; on Cytochrome P450 2C19 it was 3.95; against Cytochrome P450 3A4 it was 3.80; in data set [3], 5.42; in [1], below 3.52. Further, the pIC50 at Cytochrome P450 3A5 was 3.80; at Transporter it was 4.49; in data set [2], 5.38. In addition, the “inhibition (INH)” value at Cytochrome P450 1A1 and against Cytochrome P450 1A2 was 20% in each case. The Time in the data set on Rattus norvegicus worked out at 227.1 min.

As to `NC(=O)C[S+]([O-])Cc1ccccc1-c1ccc(Cl)cc1` (single isomer, unassigned; (-)) [listing 2 of 2 here], the inhibition in data set [4] amounted to 16%; in data set [5], 3%.

Turning to `NC(=O)C[S+]([O-])Cc1ccccc1-c1ccc(Cl)cc1` (single isomer, unassigned; (+)) [listing 2 of 2 here], the inhibition amounted to 12% in data set [4] and 4% in [5].

One may read the pIC50 as −log10 of the IC50, conventionally taken in molar units. By inhibition is commonly meant how much of the control response was suppressed. Read a high inhibition as strong suppression.

Source of the values: ChEMBL document CHEMBL1955765, “Wake-promoting agents: search for next generation modafinil: part II” (Bioorg Med Chem Lett, 2012).
